Laboratory results as given in patent US20250066289A1, “BIGUANIDE DERIVATIVE OF IBUPROFEN AND PROCESS OF PREPARATION THEREOF” (BVDU's Poona College of Pharmacy, priority 2023, published 2025).

Key:
CAR-induced paw edema = CAR-induced paw edema anti-inflammatory study; type: in vivo, Male Wistar rats; settings: for water volume displacement digital plethysmometer (paw volume): 5 mg/kg i.p., Mean ± SD, n=4
Description: (§1) Male Wistar rats weighing between 200 and 250 g were used for the studies. The animals were kept in animal cages with free access to standard pellet food and water at a temperature of 23±2° C., a 12-hour cycle of darkness and light, and a relative humidity of roughly 45 to 65%. The Institutional Animal Ethics Committee (IAEC) authorized the protocol, and the animal experiments were carried out in accordance with it as well as the Indian regulations established by the Committee for the Purpose of Control and Supervision of Experimental Animals (CPCSEA), New Delhi.
In the second experiment, the anti-inflammatory effect of Biguanide of Ibuprofen in comparison Ibuprofen was assessed by CAR-induced paw edema. The experimental groups were designed as follows (n=4 per group): • Group 1. Control group: 100 μl saline (i.d.)+saline (i.p.), • Group 2. CAR group: 100 μl CAR (i.d.)+saline (i.p.), • Group 3. Ibuprofen 5 mg/kg group: 100 μl CAR (i.d.)+5 mg/kg Ibuprofen (i.p.), • Group 4. Biguanide of Ibuprofen 5 mg/kg group: 100 μl CAR (i.d.)+5 mg/kg Biguanide of Ibuprofen (i.p.),
Carrageenan (100 μl) was injected by i.d. route per rat into the right hind paw. The rats were injected with i.p. Ibuprofen (5 mg/kg), and Biguanide of Ibuprofen (5 mg/kg) immediately after CAR injection. Saline was given to the control group. The paw volume was measured plethysmographically at 0 min, 30 min, 60 min, 90 min, 120 min, 180 min and 240 min. The 0th min reading was considered as the initial paw size of the rats. The change in the paw volume in the test groups was compared with the untreated control groups. The reduction in paw volume (mL) with the help of water plethysmometer was recorded.

[1] = system: STZ induced diabetic rats; assay: STZ induced diabetic study, fasting blood glucose; type: in vivo, Male Wistar rats; settings: for Fasting Blood Glucose (FBG): Mean ± SD, n=4
Description: as §1
An intraperitoneal injection of streptozotocin (STZ, 55 mg/kg of body weight) was used to cause diabetes. STZ was dissolved in 0.1 mol/L citrate buffer, pH 4.5, and injected into the peritoneal cavity. The fasting blood glucose concentration (FBG) was used for diagnosis of diabetes. Animals having blood glucose level greater than 16.7 mmol/L after 24 hours were deemed diabetic. These animals were further selected for the study.
The animals (n=4) were divided into four groups. • Group 1: treated with vehicle (distilled water) vehicle control; • Group 2: treated with vehicle (drinking water and STZ) diabetic control; • Group 3: treated with metformin (10 mg/kg body weight/day in drinking water) diabetic test; and • Group 4: treated with Biguanide of Ibuprofen (10 mg/kg body weight/day in drinking water) diabetic test.
The treatment with metformin and Biguanide of Ibuprofen was given for 14 days. And at the end of treatment fasting blood glucose estimation was performed.

[2] = Day 7, 10 mg/kg body weight/day in drinking water
[3] = Day 14, 10 mg/kg body weight/day in drinking water

Structure (SMILES) | water volume displacement digital plethysmometer (paw volume) (CAR-induced paw edema; 0 min (initial paw size)) [mL] | water volume displacement digital plethysmometer (paw volume) (CAR-induced paw edema; 30 min after CAR) [mL] | water volume displacement digital plethysmometer (paw volume) (CAR-induced paw edema; 60 min after CAR) [mL] | water volume displacement digital plethysmometer (paw volume) (CAR-induced paw edema; 90 min after CAR) [mL] | water volume displacement digital plethysmometer (paw volume) (CAR-induced paw edema; 120 min after CAR) [mL] | water volume displacement digital plethysmometer (paw volume) (CAR-induced paw edema; 180 min after CAR) [mL] | water volume displacement digital plethysmometer (paw volume) (CAR-induced paw edema; 240 min after CAR) [mL] | Paw volume compared to Ibuprofen (in words) (CAR-induced paw edema; CAR-induced paw edema, both 5 mg/kg i.p.) | Effect on FBG levels in diabetic rats (in words) ([1]; 10 mg/kg/day, 14 days) | Fasting Blood Glucose (FBG) [1, 2] [mmol/L] | Fasting Blood Glucose (FBG) [1, 3] [mmol/L] | Reduction in FBG compared to metformin (in words) ([1]; both 10 mg/kg/day, 14 days)
CC(C)Cc1ccc(C(C)C(=O)NNC(=N)NC(=N)N)cc1 (centres unmarked) [Biguanide of Ibuprofen, N-carbamimidoyl-2-(2-(4-isobutylphenyl)propanoyl) hydrazine-1-carboximidamide] | 0.692 ± 0.012 | 0.853 ± 0.016 | 0.940 ± 0.013 | 0.875 ± 0.021 | 0.815 ± 0.015 | 0.740 ± 0.018 | 0.710 ± 0.011 | significantly decreased paw volume, when compared to that of the Ibuprofen | significant lowering of FBG levels | 22.93 ± 0.97 | 6.38 ± 0.86 | more marked reduction in FBG when compared to metformin
CN(C)C(=N)N=C(N)N [metformin, 3-(diaminomethylidene)-1,1-dimethylguanidine, reference compound] |  |  |  |  |  |  |  |  |  | 22.77 ± 1.12 | 10.27 ± 1.21 | 
